Results published in patent publication US11013728B2, “Cyclin-dependent kinase 8 and/or 19 inhibitor” (Kyoto Pharmaceutical Industries, Ltd., priority 2017, dated 2021).

Assays:
[1] = tested on: human acute myeloid leukemia MV4; 11; assay: MV4;11 cell proliferation inhibitory activity (CellTiter 96 Aqueous One); type: cell-based; settings: 72 h, MV4;11 cells, cultured 3 days, read-out: cell proliferation inhibitory rate
Description: The human acute myeloid leukemia MV4; 11 cell proliferation inhibitory activity of compound (I) of the present invention was evaluated by the following method.
A cell suspension (100 μL, 10,000 cells/well) of human acute myeloid leukemia MV4; 11 (purchased from American Type Culture Collection) was seeded on a 96 well plate and cultured in a 5% carbon dioxide gas incubator at 37° C. for one day. After the above-mentioned culture, each test compound (compound (I)) was added to a concentration of 1 μM and the mixture was further cultured for 3 days. After the above-mentioned culture, 40 μL of CellTiter 96 (registered trade mark) Aqueous One Solution Cell Proliferation Assay (Promega KK) was added to the 96 well-plate, the mixture was reacted for 3 hr, and the absorbance (490 nm) was measured by a plate reader.
Using the absorbance of the test compound non-addition well as a control and the absorbance of the cell non-seeded well as a blank, the cell proliferation inhibitory rate was determined at 1 μM of each test compound.

[2] = tested on: 39 kinds of serine/threonine kinase; assay: Off-chip Mobility Shift Assay (MSA), serine/threonine kinase panel; type: biochemical; settings: test compound 1 μM; 39 kinases listed in b243 (AKT1 ... TSSK1, incl. CDK2, 3, 4, 5, 6, 7, 9)
Description: The action of compound (I) of the present invention on serine/threonine kinase activity was examined by Off-chip Mobility Shift Assay (MSA). The method is shown below.
The action of a test compound (1 μM) on 39 kinds of serine/threonine kinase activity was examined. A solution of 4-fold concentration of compound 32 (5 μL) prepared by using an assay buffer (20 mM HEPES, 0.01% Triton X-100, 2 mM DTT, pH 7.5), a substrate/ATP/metal solution (5 μL) and a kinase […] solution (10 μL) were mixed in a well of a polypropylene 384 well plate and the mixture was reacted at room temperature for 1 or 5 hr. The reaction was discontinued by adding 70 μL of Termination Buffer (Carna Biosciences). The substrate peptide and phosphorylated peptide in the reaction solution were separated and quantified by LabChip System (Perkin Elmer).
The kinase reaction was evaluated based on a resultant product ratio (P/(P+S)) calculated from substrate peptide peak height (S) and phosphorylated peptide peak height (P).

CDK19 = molecular target: T1, CDK19 (Homo sapiens, UniProt Q9BWU1); assay: CDK19 inhibitory activity, ELISA kinase assay; type: biochemical; settings: at 1 μM of test compound; read-out: CDK19 inhibitory rate
T1 construct: purchased Carna Bioscience
Description: The test compound (compound (I)) dissolved in DMSO was diluted with an assay buffer (QSS Assist STK ELISA Kit (CDK8/CycC), Carna Bioscience) to give a primary dilution solution with a DMSO concentration of 40%. The above-mentioned primary dilution solution (10 μL) was dispensed in a streptavidin-coated 96 well plate, and an assay buffer mixture (10 μL) containing 500 nM substrate (Carna Bioscience), 10 mM MgCl2 (Carna Bioscience) and 100 μM ATP (Carna Bioscience) was added. After the above-mentioned addition, 10 μL of a kinase solution was added (1 ng/μL CDK8/CycC (Carna Bioscience) diluted with assay buffer is used for measurement of CDK8 inhibitory activity and for 5 ng/μL […] (Carna Bioscience) diluted with assay buffer is used for measurement of CDK19 inhibitory activity). After the above-mentioned addition, the mixture was stood in an incubator at 24-26° C. for 30 min. […] The reaction was quenched by adding a color developing reaction termination drug (Nacalai Tesque) (100 μL) to each well, and the absorbance (450 nm) was measured by a plate reader.
Using the absorbance of the test compound non-addition well as a control and the absorbance of the enzyme non-addition well as a blank, the CDK8 and CDK19 inhibitory rate was determined at 1 μM of each test compound.

various cancer cells = settings: reported in non-patent document 3; remarkable effects on leukemia cells; cited from earlier work

T1 sequence (Q9BWU1 whole entry): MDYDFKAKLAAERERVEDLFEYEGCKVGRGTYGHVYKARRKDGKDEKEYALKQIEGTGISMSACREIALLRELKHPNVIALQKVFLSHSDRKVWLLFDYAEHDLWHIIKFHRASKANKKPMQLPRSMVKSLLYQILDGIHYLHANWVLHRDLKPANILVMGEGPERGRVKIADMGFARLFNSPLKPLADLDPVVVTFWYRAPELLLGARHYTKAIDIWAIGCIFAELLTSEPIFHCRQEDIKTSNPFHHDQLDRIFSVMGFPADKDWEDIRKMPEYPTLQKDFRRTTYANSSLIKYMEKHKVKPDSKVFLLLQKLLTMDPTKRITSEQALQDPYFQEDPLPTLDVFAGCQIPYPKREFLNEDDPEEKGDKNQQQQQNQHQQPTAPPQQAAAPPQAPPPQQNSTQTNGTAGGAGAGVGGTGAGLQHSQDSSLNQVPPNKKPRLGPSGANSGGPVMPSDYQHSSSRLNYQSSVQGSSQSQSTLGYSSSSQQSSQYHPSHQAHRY
T1 sequence (P24863 whole entry partner): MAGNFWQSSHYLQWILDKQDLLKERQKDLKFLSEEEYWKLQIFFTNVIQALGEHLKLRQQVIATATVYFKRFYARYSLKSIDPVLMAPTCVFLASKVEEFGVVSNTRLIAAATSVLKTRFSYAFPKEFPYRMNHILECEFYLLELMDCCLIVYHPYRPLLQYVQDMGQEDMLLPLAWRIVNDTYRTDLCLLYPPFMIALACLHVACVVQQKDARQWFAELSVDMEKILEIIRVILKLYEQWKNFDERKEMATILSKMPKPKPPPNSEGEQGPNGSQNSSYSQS

## CC(=O)c1ccc(C(N)=O)cc1Oc1ccc(N2CC(OCCO)C2)cc1 [Compound 28, 4-acetyl-3-{4-[3-(2-hydroxyethoxy)azetidin-1-yl]phenoxy}benzamide]
[1]
  inhibition at 1 µM: ≥ 50%

## NC(=O)c1ccc([N+](=O)[O-])c(Nc2ccc(N3CC(OCCO)C3)cc2)c1 [Compound 5, 3-{4-[3-(2-hydroxyethoxy)azetidin-1-yl]phenylamino}-4-nitrobenzamide]
[1]
  inhibition at 1 µM: ≥ 50%

## CC(=O)c1ccc(C(N)=O)cc1Oc1ccc(OCCOCCOC(C)C)cc1 [Compound 33, 4-acetyl-3-{4-[2-(2-isopropoxyethoxy)ethoxy]phenoxy}benzamide]
[1]
  inhibition at 1 µM: ≥ 50%

## NC(=O)c1ccc(C(F)(F)F)c(Oc2ccc(OCCOC3CCOCC3)cc2)c1 [Compound 64, 3-{4-[2-(tetrahydropyran-4-yloxy)ethoxy]phenoxy}-4-trifluoromethylbenzamide]
[1]
  inhibition at 1 µM: ≥ 50%

## NC(=O)c1ccc([N+](=O)[O-])c(Nc2ccc(OCCOC3CCOCC3)cc2)c1 [Compound 50, 4-nitro-3-{4-[2-(tetrahydropyran-4-yloxy)ethoxy]phenylamino}benzamide]
[1]
  inhibition at 1 µM: ≥ 50%

## CNC(=O)c1ccc([N+](=O)[O-])c(Nc2ccc(N3CC(OCCO)C3)cc2)c1 [Compound 48, 3-{4-[3-(2-hydroxyethoxy)azetidin-1-yl]phenylamino}-N-methyl-4-nitrobenzamide]
[1]
  inhibition at 1 µM: ≥ 50%

## CC(=O)c1ccc(C(N)=O)cc1Oc1ccc(OCCOC2CCOC2)cc1 (stereo not shown) [Compound 67, 4-acetyl-3-{4-[2-(tetrahydrofuran-3-yloxy)ethoxy]phenoxy}benzamide]
[1]
  inhibition at 1 µM: ≥ 50%

## CC(=O)c1ccc(C(N)=O)cc1Oc1ccc(OCCOC2CCOCC2)cc1 [Compound 32, 4-acetyl-3-{4-[2-(tetrahydropyran-4-yloxy)ethoxy]phenoxy}benzamide]
[2]
  action on serine/threonine kinase activity: did not affect
CDK19
  inhibition at 1 µM: ≥ 90%
[1]
  inhibition at 1 µM: ≥ 50%

## Cortistatin A
Various cancer cells
  proliferation of various cancer cells: suppresses proliferation

## C=C(F)c1ccc(C(N)=O)cc1Oc1ccc(OCCOC2CCOCC2)cc1 [Compound 84, 4-(1-fluorovinyl)-3-{4-[2-(tetrahydropyran-4-yloxy)ethoxy]phenoxy}benzamide]
[1]
  inhibition at 1 µM: ≥ 50%

## C[C@@H](O)c1ccc(C(N)=O)cc1Oc1ccc(OCCOC2CCOCC2)cc1 [Compound 43]
CDK19
  inhibition at 1 µM: ≥ 90%
